Test results taken from patent USRE40086E1, “Method for treating bacterial infection with novel 7-substituted-9-substituted amino 6-demethyl-6-deoxytetracyclines” (Wyeth Holdings Corporation, priority 1991, dated 2008).
Where a name gives a salt, the structure may show the parent alone.

Assays:
[1] = system: tetracycline-susceptible E. coli; assay: Resumption of bacterial growth after washing out the antibiotic (reversibility of binding); format: cell-based; conditions: 30 minutes at growth inhibitory concentrations, then centrifugation and fresh medium
Procedure: The antibiotics are added to exponentially growing cultures of tetracycline-susceptible E. coli at growth inhibitory concentrations. After 30 minutes, excess antibiotic is removed from the bacteria by centrifugation and the organism is resuspended in fresh growth medium. The ability of bacteria to resume growth is monitored. […] This reflects the different binding characteristics of the drugs.

[2] = system: S. aureus UBMS 88-5 (tetM); assay: MIC, agar dilution; format: cell-based
[3] = system: S. aureus UBMS 88-4 (Sensitive); assay: MIC, agar dilution; format: cell-based
[4] = system: S. aureus UBMS 90-1 (tetM); assay: MIC, agar dilution; format: cell-based
[5] = system: S. aureus UBMS 90-2 (tetM); assay: MIC, agar dilution; format: cell-based; conditions: S. aureus UBMS 90-2 TetM; Table IA; unit assumed
[6] = system: S. aureus UBMS 90-3 (Sensitive); assay: MIC, agar dilution; format: cell-based
[7] = system: S. aureus UBMS 88-7 (tetK); assay: MIC, agar dilution; format: cell-based; conditions: S. aureus UBMS 88-7 TetK; Table IA; unit assumed
[8] = system: S. aureus IVES 2943 (meth. resistant); assay: MIC, agar dilution; format: cell-based; conditions: S. aureus IVES 2943; Table IA; unit assumed
[9] = system: S. aureus IVES 1983 (meth. resistant); assay: MIC, agar dilution; format: cell-based; conditions: S. aureus IVES 1983; Table IA; unit assumed
[10] = system: S. aureus ATCC 29213 (Sensitive); assay: MIC, agar dilution; format: cell-based; conditions: S. aureus ATCC 29213; Table IA; unit assumed
[11] = system: S. aureus Smith (Sensitive); assay: MIC, agar dilution; format: cell-based; conditions: S. aureus SMITH (MP); Table IA; unit assumed
[12] = system: S. haemolyticus AVAH 88-3; assay: MIC, agar dilution; format: cell-based; conditions: S. hemolyticus AVHAH 88-3; Table IA; unit assumed
E. faecalis 12201 = assay: MIC, agar dilution; format: cell-based; conditions: Enterococcus 12201; Table IA; unit assumed
E. faecalis ATCC 29212 = assay: MIC, agar dilution; format: cell-based; conditions: E. faecalis ATCC 29212; Table IA; unit assumed
E. coli UBMS 88-1 (tetB) = assay: MIC, agar dilution; format: cell-based; conditions: E. coli UBMS 88-1 TetB; Table IA; unit assumed
E. coli UBMS 89-1 (tetM) = assay: MIC, agar dilution; format: cell-based; conditions: E. coli UBMS 89-1 TetM; Table IA; unit assumed
[13] = system: E. coli UBMS 89-2 (Sensitive); assay: MIC, agar dilution; format: cell-based; conditions: E. coli UBMS 89-2 Tet Sens.; Table IA; unit assumed
E. coli ATCC 25922 = assay: MIC, agar dilution; format: cell-based; conditions: E. coli ATCC 25922; Table IA; unit assumed
E. coli UBMS 90-4 (tetM) = assay: MIC, agar dilution; format: cell-based
S. aureus SMITH (sens) [14] = assay: In vivo antibacterial evaluation, acute lethal infection in mice; conditions: Oral
Excerpt: In Vivo Antibacterial Evaluation (Table VII)

E. coli MC4100 Tet sens. = assay: MIC, agar dilution (Table IA); format: cell-based; conditions: unit assumed
E. coli MC4100 TetB = assay: MIC, agar dilution (Table IA); format: cell-based; conditions: unit assumed
E. coli PRP1 TetA = assay: MIC, agar dilution (Table IA); format: cell-based; conditions: unit assumed
E. coli J3272 TetC = assay: MIC, agar dilution (Table IA); format: cell-based; conditions: unit assumed
E. coli J2175 = assay: MIC, agar dilution (Table IA); format: cell-based; conditions: unit assumed
E. coli BAJ9003 = assay: MIC, agar dilution (Table IA); format: cell-based; conditions: unit assumed
E. coli UBMS 90-5 = assay: MIC, agar dilution (Table IA); format: cell-based; conditions: unit assumed
E. coli #311 (MP) = assay: MIC, agar dilution (Table IA); format: cell-based; conditions: unit assumed
E. coli J3272 TetD = assay: MIC, agar dilution (Table IA); format: cell-based; conditions: unit assumed
S. mariescens FDOR 8733 = assay: MIC, agar dilution (Table IA); format: cell-based; conditions: unit assumed
[15] = system: X. maltophilia NEMC 87210; assay: MIC, agar dilution (Table IA); format: cell-based; conditions: unit assumed
[16] = system: Ps. acruginosa ATCC 27853; assay: MIC, agar dilution (Table IA); format: cell-based; conditions: unit assumed
S. aureus NEMC 8769/89-4 = assay: MIC, agar dilution (Table IA); format: cell-based; conditions: unit assumed
S. aureus ROSE (MP) = assay: MIC, agar dilution (Table IA); format: cell-based; conditions: unit assumed
S. aureus SMITH (sens) [17] = assay: In vivo antibacterial evaluation, acute lethal infection in mice; conditions: Intraveneous
[18] = system: N. gonorrhoeae 6418 (tetM); assay: MIC, agar dilution; format: cell-based; conditions: Neisseria gonorrhoeae
[19] = system: E. faecalis UBMS 90-6 (tetM); assay: MIC, agar dilution; format: cell-based; conditions: Enterococcus faecalis
[20] = system: E. faecalis UBMS 90-7 (tetM); assay: MIC, agar dilution; format: cell-based; conditions: Enterococcus faecalis
[21] = system: Staphylococcus aureus, methicillin-susceptible; assay: MIC vs recent clinical and agricultural isolates (Table V, KK); format: cell-based; conditions: [15] tested
Enterococcus faecalis = assay: as above; format: cell-based; conditions: [10] tested
Enterococcus faecium = assay: as above; format: cell-based; conditions: [10] tested
Streptococcus pyogenes = assay: as above; format: cell-based; conditions: [10] tested
Streptococcus agalactiae = assay: as above; format: cell-based; conditions: [10] tested
Streptococcus pneumoniae = assay: as above; format: cell-based; conditions: [10] tested
Listeria monocytogenes = assay: as above; format: cell-based; conditions: [8] tested
Klebsiella oxytoca = assay: as above; format: cell-based; conditions: [10] tested
Citrobacter freundii = assay: as above; format: cell-based; conditions: [10] tested
Citrobacter diversus = assay: as above; format: cell-based; conditions: [10] tested
Enterobacter cloacae = assay: as above; format: cell-based; conditions: [10] tested
Enterobacter aerogenes = assay: as above; format: cell-based; conditions: [10] tested
Proteus mirabilis = assay: as above; format: cell-based; conditions: [26] tested
Proteus vulgaris = assay: as above; format: cell-based; conditions: [18] tested
Pseudomonas aeruginosa = assay: as above; format: cell-based; conditions: [10] tested
Xanthomonas maltophilia = assay: as above; format: cell-based; conditions: [10] tested
Moraxella catarrhalis = assay: as above; format: cell-based; conditions: [18] tested
Haemophilus influenzae = assay: as above; format: cell-based; conditions: [15] tested
[22] = system: Pasturella multocida (Agricultural & Clinical); assay: as above; format: cell-based; conditions: [17] tested
[23] = system: Bordetella bronchiseptica (Agricultural); assay: as above; format: cell-based; conditions: [10] tested
[24] = system: Bacertoides fragilis group; assay: as above; format: cell-based; conditions: [10] tested
Clostridium perfringens = format: cell-based; conditions: [16] tested
[25] = system: E. coli cell-free ribosomes, strain MRE 600 (TC Sensitive Host); assay: E. coli in vitro cell free protein translation system (Table VI); format: biochemical
[26] = system: E. coli cell-free ribosomes, strain MRE 600 (tetM) (Tet M Host); assay: as above; format: biochemical

polymyxin [reference compound]
ability of bacteria to resume growth after excess antibiotic is removed by washing [1]: continues to prevent bacterial growth even when excess antibiotic is removed

CCCCCCNCC(=O)Nc1cc(N(C)C)c2c(c1O)C(=O)C1=C(O)[C@]3(O)C(=O)C(C(N)=O)=C(O)[C@@H](N(C)C)C3CC1C2 (stereo partly drawn) [BBB, [4S-(4alpha,12aalpha)]-4,7-Bis(dimethylamino)-9-[[(hexylamino)acetyl]amino]-1,4,4a,5,5a,6,11,12a-octahydro-3,10,12,12a-tetrahydroxy-1,11-dioxo-2-naphthacenecarboxamide dihydrochloride]
Antibacterial activity (MIC) ([2]; S. aureus UBMS 88-5 TetM, Table IA, unit assumed): 0.5 µg/mL | Antibacterial activity (MIC) ([3]; S. aureus UBMS 88-4, Table IA, unit assumed): 0.25 µg/mL | Antibacterial activity (MIC) ([4]; S. aureus UBMS 90-1 TetM, Table IA, unit assumed): 0.25 µg/mL | Antibacterial activity (MIC) [5]: 0.25 µg/mL | Antibacterial activity (MIC) ([6]; S. aureus UBMS 90-3, Table IA, unit assumed): 0.06 µg/mL | Antibacterial activity (MIC) [7]: 2 µg/mL | Antibacterial activity (MIC) [8]: 4 µg/mL | Antibacterial activity (MIC) [9]: 4 µg/mL | Antibacterial activity (MIC) [10]: 0.25 µg/mL | Antibacterial activity (MIC) [11]: 0.12 µg/mL | Antibacterial activity (MIC) [12]: 0.5 µg/mL | Antibacterial activity (MIC) (E. faecalis 12201): 0.25 µg/mL | Antibacterial activity (MIC) (E. faecalis ATCC 29212): 0.12 µg/mL | Antibacterial activity (MIC) (E. coli UBMS 88-1 (tetB)): 0.5 µg/mL | Antibacterial activity (MIC) (E. coli UBMS 89-1 (tetM)): 0.25 µg/mL | Antibacterial activity (MIC) [13]: 0.25 µg/mL | Antibacterial activity (MIC) (E. coli ATCC 25922): 0.12 µg/mL | Antibacterial activity (MIC) (E. coli UBMS 90-4 (tetM); E. coli UBMS 90-4 TetM, Table IA, unit assumed): 0.25 µg/mL | ED50 (S. aureus SMITH (sens) [14]): 4 to 8 mg/kg | Antibacterial activity (MIC) (E. coli MC4100 Tet sens.): 0.25 µg/mL | Antibacterial activity (MIC) (E. coli MC4100 TetB): 0.5 µg/mL | Antibacterial activity (MIC) (E. coli PRP1 TetA): 0.5 µg/mL | Antibacterial activity (MIC) (E. coli J3272 TetC): 0.5 µg/mL | Antibacterial activity (MIC) (E. coli J2175): 0.25 µg/mL | Antibacterial activity (MIC) (E. coli BAJ9003): 0.06 µg/mL | Antibacterial activity (MIC) (E. coli UBMS 90-5): 0.25 µg/mL | Antibacterial activity (MIC) (E. coli #311 (MP)): 0.5 µg/mL | Antibacterial activity (MIC) (E. coli J3272 TetD): 0.12 µg/mL | Antibacterial activity (MIC) (S. mariescens FDOR 8733): 4 µg/mL | Antibacterial activity (MIC) [15]: 4 µg/mL | Antibacterial activity (MIC) [16]: 16 µg/mL | Antibacterial activity (MIC) (S. aureus NEMC 8769/89-4): 0.06 µg/mL | Antibacterial activity (MIC) (S. aureus ROSE (MP)): 16 µg/mL | ED50 (S. aureus SMITH (sens) [17]): 1.8 mg/kg

CN(C)c1cc(NC=O)c(O)c2c1CC1CC3C(N(C)C)C(O)=C(C(N)=O)C(=O)C3(O)C(O)=C1C2=O (centres unmarked)
ability of bacteria to resume growth after excess antibiotic is removed by washing [1]: bacterial growth resumed when the compound was removed

CN(C)[C@@H]1C(O)=C(C(N)=O)C(=O)[C@@]2(O)C(O)=C3C(=O)c4c(O)cccc4[C@@](C)(O)[C@H]3C[C@@H]12 [TC, Tetracycline hydrochloride]
MIC ([2]; Staphylococcus aureus): 32 µg/mL | MIC ([3]; Staphylococcus aureus, S. aureus UBMS 88-4 (Sensitive), read-out: MIC): 0.12 µg/mL | MIC ([4]; Staphylococcus aureus): 32 µg/mL | MIC ([6]; Staphylococcus aureus, S. aureus UBMS 90-3 (Sensitive), read-out: MIC): 0.12 µg/mL | MIC (E. coli UBMS 90-4 (tetM); Escherichia coli): 64 µg/mL | MIC [18]: > 32 µg/mL | MIC [19]: 32 µg/mL | MIC [20]: 32 µg/mL | MIC (range over isolates) [21]: 0.12 to 1 µg/mL | MIC (range over isolates) (Enterococcus faecalis): 0.12 to 64 µg/mL | MIC (range over isolates) (Enterococcus faecium): 0.12 to 64 µg/mL | MIC (range over isolates) (Streptococcus pyogenes): 0.12 to 16 µg/mL | MIC (range over isolates) (Streptococcus agalactiae): 0.25 to 64 µg/mL | MIC (range over isolates) (Streptococcus pneumoniae): 0.12 to 2 µg/mL | MIC (range over isolates) (Listeria monocytogenes): 0.12 to 0.5 µg/mL | MIC (range over isolates) (Klebsiella oxytoca): 0.5 to 1 µg/mL | MIC (range over isolates) (Citrobacter freundii): 0.5 to 16 µg/mL | MIC (range over isolates) (Citrobacter diversus): 0.5 to 4 µg/mL | MIC (range over isolates) (Enterobacter cloacae): 0.5 to 2 µg/mL | MIC (range over isolates) (Enterobacter aerogenes): 0.5 to 1 µg/mL | MIC (range over isolates) (Proteus mirabilis): 0.5 to 64 µg/mL | MIC (range over isolates) (Proteus vulgaris): 0.25 to 64 µg/mL | MIC (range over isolates) (Pseudomonas aeruginosa): 2 to 32 µg/mL | MIC (range over isolates) (Xanthomonas maltophilia): 8 to 16 µg/mL | MIC (range over isolates) (Moraxella catarrhalis): 0.06 to 0.5 µg/mL | MIC (range over isolates) (Haemophilus influenzae): 1 to 32 µg/mL | MIC (range over isolates) [22]: 0.06 to 16 µg/mL | MIC (range over isolates) [23]: 0.12 to 0.25 µg/mL | MIC (range over isolates) [24]: 0.25 to 32 µg/mL | MIC (range over isolates) (Clostridium perfringens): 0.015 to 16 µg/mL | IC50, concentration of antibiotic required to inhibit protein synthesis by 50% compared to a drug-free control [25]: 0.6 µg/mL | IC50, concentration of antibiotic required to inhibit protein synthesis by 50% compared to a drug-free control [26]: 2.0 µg/mL
